Experimental data: US20240067632A1, “WEE1 Degrading Compounds and Uses Thereof” (Bristol-Myers Squibb Company, priority 2022, published 2024)

Experiments:
MKN45 cells = test: MKN45 cell proliferation assay (Cell-Titer-Glo, 120 h); format: cell-based; conditions: for EC50: Homo sapiens, MKN-45, 120 h, Cell-Titer-Glo, growth inhibition, read-out: MKN45 Cell Prolif. 120 hr (EC50); for MKN45 Cell Prolif. 120 hr (Ymin-Obs): minimal percent of DMSO control observed in the concentrations tested
In short: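 Growth inhibition was read as blank-corrected Cell-Titer-Glo luminescence expressed as percent DMSO control after 120 h at 37 C, 400 cells/well. Compounds tested in triplicate as 10-point half-log series from 1 or 10 uM, 0.1% DMSO; four-parameter fit gave EC50, and lowest observed percent control was reported as Ymin-obs.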

WEE1 = molecular target: T1, WEE1 (Homo sapiens, UniProt P30291+Q96SW2); test: WEE1-ePL degradation assay (LentiX-WEE1-ePL-GSPT1-ND cells, InCELL Hunter luminescence, 4 h); format: cell-based; conditions: 293T-LentiX WEE1-ePL cells; for 293T-LentiX WEE1-ePL Degradation 4 hr (Ymin): lower limit of the fit (0 = luciferase inhibitor, Ymax = DMSO control); for DC50: read-out: 293T-LentiX WEE1-ePL Degradation 4 hr (EC50)
T1 construct: C-terminal ePL-tagged (DiscoverX, Fremont, CA) full-length WEE1 expression construct; expressed in transfected cells; host or cells: LentiX-HEK293T (Invitrogen), lentiviral transduction; co-expressing GSPT1-GN (G576N, lacking the first 158 amino acids)
In short: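 Luminescent readout (InCELL Hunter, 30 min RT) of WEE1-ePL levels in transduced HEK293T cells after 4 h compound exposure at 37 °C. Dosing: 10 points, 3-fold steps, top 1 uM or 10 uM. EC50 from four-parameter logistic fit; Ymax set by DMSO.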

| EC50 (MKN45 cells) [nM] | 293T-LentiX WEE1-ePL Degradation 4 hr (Ymin) (WEE1) | DC50 (WEE1) [nM] | Structure (SMILES) | MKN45 Cell Prolif. 120 hr (Ymin-Obs) (MKN45 cells) |
| --- | --- | --- | --- | --- |
| 11.9 | 35 | 2.69 | O=C1CCC(N2Cc3cc(O[C@H]4CCN(Cc5ccc6nc(N7CCOCC7)ccc6c5)C4)ccc3C2=O)C(=O)N1 (stereo partly drawn) [3-(5-{[(3S)-1-{[2-(morpholin-4-yl)quinolin-6-yl]methyl}pyrrolidin-3-yl]oxy}-1-oxo-2,3-dihydro-1H-isoindol-2-yl)piperidine-2,6-dione] | 12.168 |
| 21.4 | 30.5 | 32.6 | O=C1CCC(N2Cc3cc(O[C@H]4CCN(Cc5ccc6nc(C7CCOCC7)ncc6c5)C4)ccc3C2=O)C(=O)N1 (stereo partly drawn) [3-(5-{[(3S)-1-{[2-(oxan-4-yl)quinazolin-6-yl]methyl}pyrrolidin-3-yl]oxy}-1-oxo-2,3-dihydro-1H-isoindol-2-yl)piperidine-2,6-dione] | 6.11 |
| 4.9 | 32.6 | 2.83 | O=C1CCC(N2Cc3cc(O[C@H]4CCN(Cc5ccc6nc(C7CCOCC7)ccc6c5)C4)ccc3C2=O)C(=O)N1 (stereo partly drawn) [3-(5-{[(3S)-1-{[2-(oxan-4-yl)quinolin-6-yl]methyl}pyrrolidin-3-yl]oxy}-1-oxo-2,3-dihydro-1H-isoindol-2-yl)piperidine-2,6-dione] | 12.83 |
| 9.83 | 33 | 4.52 | O=C1CCC(N2Cc3cc(O[C@H]4CCN(Cc5ccc6nc(OC7CCOCC7)ccc6c5)C4)ccc3C2=O)C(=O)N1 (stereo partly drawn) [3-(5-{[(3S)-1-{[2-(oxan-4-yloxy)quinolin-6-yl]methyl}pyrrolidin-3-yl]oxy}-1-oxo-2,3-dihydro-1H-isoindol-2-yl)piperidine-2,6-dione] | 13.54 |
| 16.7 | 30 | 16.8 | O=C1CCC(N2Cc3cc(O[C@H]4CCN(Cc5ccc6nc(C7COC7)ncc6c5)C4)ccc3C2=O)C(=O)N1 (stereo partly drawn) [3-(5-{[(3S)-1-{[2-(oxetan-3-yl)quinazolin-6-yl]methyl}pyrrolidin-3-yl]oxy}-1-oxo-2,3-dihydro-1H-isoindol-2-yl)piperidine-2,6-dione] | 7.8 |
| 11.2 | 33 | 3.79 | O=C1CCC(N2Cc3cc(O[C@H]4CCN(Cc5ccc6nc(C7COC7)ccc6c5)C4)ccc3C2=O)C(=O)N1 (stereo partly drawn) [3-(5-{[(3S)-1-{[2-(oxetan-3-yl)quinolin-6-yl]methyl}pyrrolidin-3-yl]oxy}-1-oxo-2,3-dihydro-1H-isoindol-2-yl)piperidine-2,6-dione] | 10.08 |
| 14.4 | 33 | 3.38 | O=C1CCC(N2Cc3cc(O[C@H]4CCN(Cc5ccc6ncc(C(F)F)cc6c5)C4)ccc3C2=O)C(=O)N1 (stereo partly drawn) [3-(5-{[(3S)-1-{[3-(difluoromethyl)quinolin-6-yl]methyl}pyrrolidin-3-yl]oxy}-1-oxo-2,3-dihydro-1H-isoindol-2-yl)piperidine-2,6-dione] | 11.04 |
| 11.1 | 33 | 4.28 | COCc1cnc2ccc(CN3CC[C@H](Oc4ccc5c(c4)CN(C4CCC(=O)NC4=O)C5=O)C3)cc2c1 (stereo partly drawn) [3-(5-{[(3S)-1-{[3-(methoxymethyl)quinolin-6-yl]methyl}pyrrolidin-3-yl]oxy}-1-oxo-2,3-dihydro-1H-isoindol-2-yl)piperidine-2,6-dione] | 7.64 |
| 204 | 34 | 18.1 | CNc1cnc2ccc(CN3CC[C@H](Oc4ccc5c(c4)CN(C4CCC(=O)NC4=O)C5=O)C3)cc2c1 (stereo partly drawn) [3-(5-{[(3S)-1-{[3-(methylamino)quinolin-6-yl]methyl}pyrrolidin-3-yl]oxy}-1-oxo-2,3-dihydro-1H-isoindol-2-yl)piperidine-2,6-dione] | 16.86 |
| 2.96 | 27 | 3.19 | O=C1CCC(N2Cc3cc(O[C@H]4CCN(Cc5ccc6ncc(N7CCOCC7)cc6c5)C4)ccc3C2=O)C(=O)N1 (stereo partly drawn) [3-(5-{[(3S)-1-{[3-(morpholin-4-yl)quinolin-6-yl]methyl}pyrrolidin-3-yl]oxy}-1-oxo-2,3-dihydro-1H-isoindol-2-yl)piperidine-2,6-dione] | 7.83 |
| 5.04 | 30 | 4.67 | O=C1CCC(N2Cc3cc(O[C@H]4CCN(Cc5ccc6ncc(C7COC7)cc6c5)C4)ccc3C2=O)C(=O)N1 (stereo partly drawn) [3-(5-{[(3S)-1-{[3-(oxetan-3-yl)quinolin-6-yl]methyl}pyrrolidin-3-yl]oxy}-1-oxo-2,3-dihydro-1H-isoindol-2-yl)piperidine-2,6-dione] | 8.08 |
| 94.9 | 35 | 3.57 | [2H]c1nc2ccc(CN3CCC(Oc4ccc5c(c4)CN(C4CCC(=O)NC4=O)C5=O)C3)cc2cc1F [3-(5-{[(3S)-1-{[3-fluoro(2-^2H)quinolin-6-yl]methyl}pyrrolidin-3-yl]oxy}-1-oxo-2,3-dihydro-1H-isoindol-2-yl)piperidine-2,6-dione] | 21.68 |
| 9.28 | 36 | 5.37 | Cc1nc(N2CCOCC2)nc2ccc(CN3CC[C@H](Oc4ccc5c(c4)CN(C4CCC(=O)NC4=O)C5=O)C3)cc12 (stereo partly drawn) [3-(5-{[(3S)-1-{[4-methyl-2-(morpholin-4-yl)quinazolin-6-yl]methyl}pyrrolidin-3-yl]oxy}-1-oxo-2,3-dihydro-1H-isoindol-2-yl)piperidine-2,6-dione] | 7.12 |
| 1.29 | 32 | 1.33 | O=C1CCC(N2Cc3cc(O[C@H]4CCN(Cc5ccc6nc(C7CCOCC7)ccc6c5F)C4)ccc3C2=O)C(=O)N1 (stereo partly drawn) [3-(5-{[(3S)-1-{[5-fluoro-2-(oxan-4-yl)quinolin-6-yl]methyl}pyrrolidin-3-yl]oxy}-1-oxo-2,3-dihydro-1H-isoindol-2-yl)piperidine-2,6-dione] | 10.02 |
| 89.6 | 46 | 11.7 | COCc1ccc2nc(CN3CC[C@H](Oc4ccc5c(c4)CN(C4CCC(=O)NC4=O)C5=O)C3)ccc2c1 (stereo partly drawn) [3-(5-{[(3S)-1-{[6-(methoxymethyl)quinolin-2-yl]methyl}pyrrolidin-3-yl]oxy}-1-oxo-2,3-dihydro-1H-isoindol-2-yl)piperidine-2,6-dione] | 26.02 |
| 12.3 | 33.5 | 5.55 | O=C1CCC(N2Cc3cc(O[C@H]4CCN(Cc5cc6cc(C7CCOCC7)ccc6cn5)C4)ccc3C2=O)C(=O)N1 (stereo partly drawn) [3-(5-{[(3S)-1-{[6-(oxan-4-yl)isoquinolin-3-yl]methyl}pyrrolidin-3-yl]oxy}-1-oxo-2,3-dihydro-1H-isoindol-2-yl)piperidine-2,6-dione] | 13.12 |
